Reference: patent US4416826A, “Peresters and use thereof” (priority 1980, dated 1983)
Where two headings read alike, the source gives them in different places.

Legend:
[1] = Triplet energy; assay type: physicochemical
[2] = Polymerization of methyl methacrylate; conditions: initiator 5 × 10^-2 M, [MMA] = 3.1 M, 25° C., benzene
Procedure: Commercial methyl methacrylate monomer is washed three times with 2% NaOH solution to remove stabilizer. It is then washed with distilled water three times, dried with molecular sieves, and distilled under vacuum before use. Polymerization solutions are prepared in cylindrical tubes which are degassed and sealed. The amount of polymer formed is determined by precipitating the polymer with an excess of methanol, washing with methanol, and filtering through fine sintered crucibles (previously weighed) followed by drying in a vacuum oven. The irradiation condition is the same as that in the decomposition rate example hereinabove.

[3] = End group analysis of polystyrene by IR
Procedure: The polystyrene obtained from each of the above polymerizations is purified by repeated (four times) precipitation from benzene solution with methanol. Before each precipitation, the benzene solution is centrifuged to remove any insoluble material. The finely powdered polymer is filtered and dried under vacuum for two days. Known amounts of polymer are dissolved in benzene and the IR is taken (2000-1500 cm^-1) against benzene in 0.1-mm NaCl cells. The peaks at 1730 and 1670 cm^-1 for the carbonyl groups, caused by ester and benzophenones, respectively, are measured. […] The extinction coefficient of the carbonyl group at 1730 cm^-1 is compared with that of authenticated methyl benzoylbenzoate, which is used as a model to measure the concentration of the ester end groups in the polymer. From the concentration of the ester and the extinction resulting from the carbonyl group in the benzophenone, the absorption caused by the benzophenone that is present as the ester can be calculated. The value is subtracted from the absorption obtained at 1670 cm^- 1 for the polymer. From the resulting absorption, the concentration of benzophenone alone is estimated from the known extinction of benzophenone at that wavelength.

[4] = Exp. 1: benzene, [I] 10 × 10^-3 M, styrene 2 M
[5] = Exp. 2: benzene, [I] 10 × 10^-3 M, styrene 3.5 M
[6] = Exp. 3: benzene, [I] 10 × 10^-3 M, styrene 5.0 M
[7] = Exp. 4: benzene, [I] 10 × 10^-3 M, styrene 7.0 M
[8] = Exp. 5: chloroform, [I] 5.0 × 10^-3 M, styrene 5.51 M
[9] = Exp. 6: chloroform, [I] 5.0 × 10^-3 M, styrene 6.92 M

In the case of `CC(C)(C)OOC(=O)c1ccc(C(=O)c2ccccc2)cc1` [Ia, t-Butyl-4-Benzoylperbenzoate], the “triplet energy ET” value [1] is reported as 67.7 kcal/mol, the “Rate of Polymerization (Rp) of MMA, Rp × 10^5” value [2] is reported as 8.33 mL^-1 s^-1 and the “total number of benzophenones as end groups per chain, in words” value [3] is reported as “one benzophenone end group”. The “end groups per chain, Benzophenone” value [3, 4] was 0.18, the “end groups per chain, Benzophenone as ester” value [3, 4] was 0.52 and the “end groups per chain, Total” value [3, 4] was 0.70. The “end groups per chain, Benzophenone” value [3, 5] was 0.13, the “end groups per chain, Benzophenone as ester” value [3, 5] was 0.68 and the “end groups per chain, Total” value [3, 5] was 0.81. For the same compound, the “end groups per chain, Benzophenone” value [3, 6] was 0.33, the “end groups per chain, Benzophenone as ester” value [3, 6] was 0.73 and the “end groups per chain, Total” value [3, 6] was 1.06. For the same compound, the “end groups per chain, Benzophenone” value [3, 7] was 0.18, the “end groups per chain, Benzophenone as ester” value [3, 7] was 0.81 and the “end groups per chain, Total” value [3, 7] was 0.99. For the same compound, the “end groups per chain, Benzophenone” value [3, 8] was 0.29, the “end groups per chain, Benzophenone as ester” value [3, 8] was 0.62 and the “end groups per chain, Total” value [3, 8] was 0.91. The “end groups per chain, Benzophenone” value [3, 9] was 0.34, the “end groups per chain, Benzophenone as ester” value [3, 9] was 0.71 and the “end groups per chain, Total” value [3, 9] was 1.05. For the same compound, the “total number of benzophenones as end groups per chain, in words” value ([3]; listed as Perester) was “almost unity”.
